{"source": "the NIST ThermoML archive (doi:10.1016/j.jct.2016.04.023)", "assay": "Boiling temperature at pressure P", "details": "Liquid, DSC", "note": "Numbers after ± are expanded uncertainties.", "data": [{"smiles": "CCCC(=O)OCC(COC(=O)CCC)OC(=O)CCC", "note": "[1,2,3-propanetriyl tributanoate]", "values": [{"measurement": "Boiling temperature at pressure P", "setting": "3.47 kPa", "value": "201.40 ± 1.9", "unit": "°C"}]}, {"smiles": "CCCCCCCCCCCCCCCCCCO", "note": "[1-octadecanol]", "values": [{"measurement": "Boiling temperature at pressure P", "setting": "3.47 kPa", "value": "225.89 ± 1.8", "unit": "°C"}]}, {"smiles": "CCCCCCCC(=O)OCC(O)CO", "note": "(stereo unspecified) [2,3-dihydroxypropyl octanoate]", "values": [{"measurement": "Boiling temperature at pressure P", "setting": "3.47 kPa", "value": "211.90 ± 1.9", "unit": "°C"}]}, {"smiles": "OCC(O)CO", "note": "[glycerol]", "values": [{"measurement": "Boiling temperature at pressure P", "setting": "3.47 kPa", "value": "186.13 ± 1.7", "unit": "°C"}]}, {"smiles": "CCCCCCCCCCCCCCCC", "note": "[hexadecane]", "values": [{"measurement": "Boiling temperature at pressure P", "setting": "3.47 kPa", "value": "170.91 ± 2.5", "unit": "°C"}, {"measurement": "Boiling temperature at pressure P", "setting": "10.37 kPa", "value": "200.90 ± 1.7", "unit": "°C"}, {"measurement": "Boiling temperature at pressure P", "setting": "15.17 kPa", "value": "213.66 ± 1.6", "unit": "°C"}, {"measurement": "Boiling temperature at pressure P", "setting": "18.66 kPa", "value": "220.5 ± 2.6", "unit": "°C"}, {"measurement": "Boiling temperature at pressure P", "setting": "22.39 kPa", "value": "223.27 ± 2.3", "unit": "°C"}]}, {"smiles": "CCCCCCCCCCCCCCCCCC", "note": "[octadecane]", "values": [{"measurement": "Boiling temperature at pressure P", "setting": "3.47 kPa", "value": "196.81 ± 1.9", "unit": "°C"}]}, {"smiles": "CCCCCCCC(=O)O", "note": "[octanoic acid]", "values": [{"measurement": "Boiling temperature at pressure P", "setting": "3.47 kPa", "value": "144.04 ± 1.9", "unit": "°C"}]}]}
